From patent US11117915B2, “Antibacterial aminoglycoside analogs” (Cipla USA, Inc., priority 2007, dated 2021)
≈ marks a conversion by molar mass, not a printed value. Read-outs that look alike come from different tables or passages of the source.

Experiments:
[1] = test system: P. aeruginosa ATCC 27853; experiment: MIC assay, CLSI broth microdilution, P. aeruginosa ATCC 27853 (APAE001); format: cell-based; conditions: Pseudomonas aeruginosa, read-out: MIC APAE001
Description: (§1) Minimum inhibitory concentrations (MIC) were determined by reference Clinical and Laboratory Standards Institute (CLSI) broth microdilution methods per M7-A7 [2006]. Quality control ranges utilizing E. coli ATCC 25922, P. aeruginosa ATCC 27853 and S. aureus ATCC 29213, and interpretive criteria for comparator agents were as published in CLSI M100-S17 [2007]. Briefly, serial two-fold dilutions of the test compounds were prepared at 2× concentration in Mueller Hinton Broth. The compound dilutions were mixed in 96-well assay plates in a 1:1 ratio with bacterial inoculum. The inoculum was prepared by suspension of a colony from an agar plate that was prepared the previous day. Bacteria were suspended in sterile saline and added to each assay plate to obtain a final concentration of 5×10^5 CFU/mL. The plates were incubated at 35° C. for 20 hours in ambient air.

[2] = test system: E. coli ATCC 25922; experiment: MIC assay, CLSI broth microdilution, E. coli ATCC 25922 (AECO001); format: cell-based; conditions: Escherichia coli, read-out: MIC AECO001
Description: as §1
These MIC assays were conducted following the same protocol as set forth in Example 110. As shown, substituted sisomicin derivatives with groups other than methyl at the 6′-position have improved activity against strains expressing the AAC6′-modifying enzymes.

`CN[C@@H]1[C@@H](O)[C@@H](O[C@@H]2[C@@H](O)[C@H](O[C@H]3OC(CNCCCN)=CC[C@H]3N)[C@@H](N)C[C@H]2NS(=O)(=O)CCN)OC[C@]1(C)O` [Example 26, 6′-(3-Amino-propyl)-1-(2-amino-ethylsulfonamide)-sisomicin] gave an MIC ([1]; ATCC27853, 20 h) of 1 to 16 µg/mL (≈ 1.63 to 26.2 µM) and an MIC ([2]; ATCC25922, 20 h) of 1 to 16 µg/mL (≈ 1.63 to 26.2 µM).
Work on `CN[C@@H]1[C@@H](O)[C@@H](O[C@@H]2[C@@H](O)[C@H](O[C@H]3OC(CNCC(O)CO)=CC[C@H]3N)[C@@H](N)C[C@H]2NS(=O)(=O)CCN)OC[C@]1(C)O` (some centres unmarked) [Example 27, 6′-(2-Hydroxy-propanol)-1-(2-amino-ethylsulfonamide)-sisomicin] yielded an MIC ([1]; ATCC27853, 20 h) of over 16 µg/mL and an MIC ([2]; ATCC25922, 20 h) of 1 to 16 µg/mL (≈ 1.59 to 25.4 µM).
With `CN[C@@H]1[C@@H](O)[C@@H](O[C@@H]2[C@@H](O)[C@H](O[C@H]3OC(CNC[C@H](O)CO)=CC[C@H]3N)[C@@H](N)C[C@H]2NC(=O)[C@@H](O)CCN)OC[C@]1(C)O` [Example 28, 6′-(2(S)-Hydroxy-propanol)-1-(4-amino-2(S)-hydroxy-butyryl)-sisomicin] the MIC ([1]; ATCC27853, 20 h) was 1 to 16 µg/mL (≈ 1.61 to 25.7 µM) and the MIC ([2]; ATCC25922, 20 h) was 1 to 16 µg/mL (≈ 1.61 to 25.7 µM).
In the case of `CN[C@@H]1[C@@H](O)[C@@H](O[C@@H]2[C@@H](O)[C@H](O[C@H]3OC(CNCCO)=CC[C@H]3N)[C@@H](N)C[C@H]2NS(=O)(=O)CCN)OC[C@]1(C)O` [Example 29, 6′-(2-Hydroxy-ethyl)-1-(2-amino-ethylsulfonamide)-sisomicin], the MIC ([1]; ATCC27853, 20 h) is reported as over 16 µg/mL and the MIC ([2]; ATCC25922, 20 h) is reported as 1 to 16 µg/mL (≈ 1.67 to 26.7 µM).
With `CN[C@@H]1[C@@H](O)[C@@H](O[C@@H]2[C@@H](O)[C@H](O[C@H]3OC(CNCC(N)CO)=CC[C@H]3N)[C@@H](N)C[C@H]2NC(=O)[C@@H](O)CCN)OC[C@]1(C)O` (stereo partly drawn) [Example 30, 6′-(2-Amino-propanol)-1-(4-amino-2(S)-hydroxy-butyryl)-sisomicin] the MIC ([1]; ATCC27853, 20 h) was 1 to 16 µg/mL (≈ 1.61 to 25.7 µM) and the MIC ([2]; ATCC25922, 20 h) was under 1 µg/mL.
`CN[C@@H]1[C@@H](O)[C@@H](O[C@@H]2[C@@H](O)[C@H](O[C@H]3OC(CNCC4(O)CCNCC4)=CC[C@H]3N)[C@@H](N)C[C@H]2NC(=O)[C@@H](O)CCN)OC[C@]1(C)O` [Example 31] was tested, and the MIC ([1]; ATCC27853, 20 h) was 1 to 16 µg/mL (≈ 1.51 to 24.2 µM) and the MIC ([2]; ATCC25922, 20 h) was 1 to 16 µg/mL (≈ 1.51 to 24.2 µM).
In the case of `CN[C@@H]1[C@@H](O)[C@@H](O[C@@H]2[C@@H](O)[C@H](O[C@H]3OC(CNCC(O)CCCN)=CC[C@H]3N)[C@@H](N)C[C@H]2NC(=O)[C@@H](O)CCN)OC[C@]1(C)O` (stereo partly drawn) [Example 32, 6′-(2-Hydroxy-5-amino-pentyl)-1-(4-amino-2(S)-hydroxy-butyryl)-sisomicin], the MIC ([1]; ATCC27853, 20 h) is reported as 1 to 16 µg/mL (≈ 1.54 to 24.6 µM) and the MIC ([2]; ATCC25922, 20 h) is reported as under 1 µg/mL.
`CN[C@@H]1[C@@H](O)[C@@H](O[C@@H]2[C@@H](O)[C@H](O[C@H]3OC(CNC[C@H]4C[C@H](N)C4)=CC[C@H]3N)[C@@H](N)C[C@H]2NC(=O)[C@@H](O)CCN)OC[C@]1(C)O` [Example 33, 6′-(Methyl-trans-3-amino-cyclobutyl)-1-(4-amino-2(S)-hydroxy-butyryl)-sisomicin] gave an MIC ([1]; ATCC27853, 20 h) of 1 to 16 µg/mL (≈ 1.58 to 25.3 µM) and an MIC ([2]; ATCC25922, 20 h) of under 1 µg/mL.
Work on `CN[C@@H]1[C@@H](O)[C@@H](O[C@@H]2[C@@H](O)[C@H](O[C@H]3OC(CNCC(O)CCN)=CC[C@H]3N)[C@@H](N)C[C@H]2NC(=O)C2(O)CCNC2)OC[C@]1(C)O` (some centres unmarked) [Example 35] yielded an MIC ([1]; ATCC27853, 20 h) of 1 to 16 µg/mL (≈ 1.54 to 24.7 µM) and an MIC ([2]; ATCC25922, 20 h) of under 1 µg/mL.
`CN[C@@H]1[C@@H](O)[C@@H](O[C@@H]2[C@@H](O)[C@H](O[C@H]3OC(CNCCO)=CC[C@H]3N)[C@@H](N)C[C@H]2NC(=O)C2(O)CNC2)OC[C@]1(C)O` [Example 37] was tested, and the MIC ([1]; ATCC27853, 20 h) was 1 to 16 µg/mL (≈ 1.69 to 27.1 µM) and the MIC ([2]; ATCC25922, 20 h) was under 1 µg/mL.
Work on `CN[C@@H]1[C@@H](O)[C@@H](O[C@@H]2[C@@H](O)[C@H](O[C@H]3OC(CNCCN)=CC[C@H]3N)[C@@H](N)C[C@H]2NC(=O)[C@@H](O)CCN)OC[C@]1(C)O` [Example 38, 6′-(2-Amino-ethyl)-1-(4-amino-2(S)-hydroxy-butyryl)-sisomicin] yielded an MIC ([1]; ATCC27853, 20 h) of 1 to 16 µg/mL (≈ 1.69 to 27 µM) and an MIC ([2]; ATCC25922, 20 h) of under 1 µg/mL.
`CN[C@@H]1[C@@H](O)[C@@H](O[C@@H]2[C@@H](O)[C@H](O[C@H]3OC(CNCC4(O)CC(CN)C4)=CC[C@H]3N)[C@@H](N)C[C@H]2NC(=O)[C@@H](O)CCN)OC[C@]1(C)O` (some centres unmarked) [Example 39] gave an MIC ([1]; APAE001 is ATCC27853, 35° C., 20 hours) of 1 to 16 µg/mL (≈ 1.51 to 24.2 µM) and an MIC ([2]; AECO001 is ATCC25922, 35° C., 20 hours) of under 1 µg/mL.
Work on `CN[C@@H]1[C@@H](O)[C@@H](O[C@@H]2[C@@H](O)[C@H](O[C@H]3OC(CNCCCN)=CC[C@H]3N)[C@@H](N)C[C@H]2NC(=O)C2(O)CCNC2)OC[C@]1(C)O` (some centres unmarked) [Example 40] yielded an MIC ([1]; ATCC27853, 20 h) of 1 to 16 µg/mL (≈ 1.62 to 25.9 µM) and an MIC ([2]; ATCC25922, 20 h) of 1 to 16 µg/mL (≈ 1.62 to 25.9 µM).
